PubChem BioAssay (NCI)
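A five-concentration, 48-hour dose response in 96-well plates underlies each endpoint, interpolated linearly between surrounding concentrations. Here, GI50 denotes the concentration required for 50% inhibition of growth. Definition used: TGI = concentration required for complete inhibition of growth.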

Legend:
Assay in all cases: NCI tumour cell line growth inhibition, 48 h
HOP-62 NSCLC = tested on: HOP-62 NSCLC
MALME-3M melanoma = tested on: MALME-3M melanoma
MCF7 breast = tested on: MCF7 breast
P388 leukemia = tested on: P388 leukemia
SF-295 CNS = tested on: SF-295 CNS
SN12K1 renal = tested on: SN12K1 renal
SNB-75 CNS = tested on: SNB-75 CNS
BT-549 breast = tested on: BT-549 breast
DU-145 prostate = tested on: DU-145 prostate
HS 578T breast = tested on: HS 578T breast
MDA-MB-231 breast = tested on: MDA-MB-231 breast
MDA-MB-435 = tested on: MDA-MB-435
MDA-N = tested on: MDA-N
PC-3 prostate = tested on: PC-3 prostate

Row | SMILES | TGI (HOP-62 NSCLC) [µM] | TGI (MALME-3M melanoma) [µM] | TGI (P388 leukemia) [µM] | TGI (SF-295 CNS) [µM] | TGI (SNB-75 CNS) [µM] | also measured
1 | O=C1CSc2sc(=S)sc2S1 | > 100 | > 100 | > 100 | > 100 | > 100 | TGI (MCF7 breast): > 100 µM; TGI (SN12K1 renal): > 100 µM
2 | CN(CCNC(=O)c1cn(C)c2c1ccc1cc(Cl)ccc12)CCNC(=O)c1cn(C)c2c1ccc1cc(Cl)ccc12 | – | 4.85 | – | – | – | TGI (BT-549 breast): 21.9 µM; TGI (DU-145 prostate): 3.25 µM; TGI (HS 578T breast): 4.25 µM; TGI (MDA-MB-231 breast): 71.8 µM; TGI (MDA-MB-435): 3.47 µM; TGI (MDA-N): 3.41 µM; TGI (PC-3 prostate): 11.5 µM
3 | Cc1ccc(NC(=O)CC(=O)n2nc(-c3ccccc3)c(N=Nc3ccccc3C(=O)O)c2-c2ccccc2)cc1 | > 100 | > 100 | – | > 100 | – | –
4 | CC1C(O)[C@@]2(OC[C@@]34C(=O)CC5(O)[C@H](CCC6Cc7nc8c(nc7C[C@]65C)CC5CC[C@@H]6C7=C[C@H]9O[C@@]%10(O[C@@](C)(CO)C[C@@H]%10O)C(C)[C@@]9(O)[C@]7(C)[C@@H](O)CC6[C@]5(C)C8)C3=CC[C@H]4C2C)OC1(C)C (some centres undefined) | 0.0015 | 0.0275 | > 3.55 | < 0.000355 | 0.215 | TGI (MCF7 breast): 0.625 µM; TGI (SN12K1 renal): > 3.55 µM
5 | COC[C@@H]1Cc2cc(OC)c3c(c2[C@H](c2ccc(OC)c(OC)c2)[C@H]1COC)OCO3 | – | > 100 | – | > 100 | 83.2 | –
6 | Nc1nccc2c1ncn2C1C=C(CO)C(O)C1O (centres undefined) | 89.9 | – | > 76.4 | – | > 1000 | GI50 (HOP-62 NSCLC): 0.408 µM; GI50 (SNB-75 CNS): > 1000 µM
7 | O=[P+](O)c1cccs1 | – | – | – | > 100 | – | –
